Laboratory results taken from patent US9499550B2 (BRISTOL-MYERS SQUIBB COMPANY, priority 2012, dated 2016).
Where two headings read alike, the source gives them in different places.

Assays:
[1] = tested on: HCV genotype 1b (Con1) replicon in HUH-7 cells; assay: HCV replicon luciferase reporter assay, genotype 1b; type: cell-based; details: Hepatitis C virus, Huh-7, 72 h, 3 days incubation, read-out: LE_1b (EC50, range)
Outline: (§1)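 Replicon inhibition for both genotypes was measured as Renilla luciferase signal (EnduRen, 7.5 μM final, 2 h) after 3-day, 37° C exposure of replicon-bearing HUH-7 cells in 4% FCS DMEM, 0.5% DMSO. The 1b construct carries S1179I; the 1a H77 construct carries P1496L and S2204I. Twenty-point, 3-fold dilutions were fitted four-parametrically for EC50, and CC50 was taken from multiplexed Cell Titer-Blue.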

[2] = tested on: HCV genotype 1a (H77 strain) replicon in HUH-7 cells; assay: HCV replicon luciferase reporter assay, genotype 1a; type: cell-based; details: Hepatitis C virus, Huh-7, 72 h, 3 days incubation, read-out: LE_1a (EC50, range)
Outline: as §1

[3] = HCV genotype 1b replicon luciferase
[4] = HCV genotype 1a replicon luciferase
[5] = HCV genotype 1b replicon luciferase assay, range class
[6] = HCV genotype 1a replicon luciferase assay, range class

SMILES	EC50 [1, 3]	EC50 [2, 4]	other results
CC[C@@H]1C[C@@H](C)CC/C=C\[C@@H]2C[C@@]2(C(=O)NS(=O)(=O)C2(C)CC2)NC(=O)[C@@H]2C[C@@H](Oc3nccc4cc(OC)c(F)cc34)CN2C(=O)[C@H]1NC(=O)OC(C)(C)C(C)(F)F [Compound 5434, 3,3-difluoro-2-methylbutan-2-yl((2R,6S,7R,9S,13aS,14aR,16aS,Z)-7-ethyl-2-((7-fluoro-6-methoxyisoquinolin-1-yl)oxy)-9-methyl-14a-(((1-methylcyclopropyl)sulfonyl)carbamoyl)-5,16-dioxo-1,2,3,5,6,7,8,9,10,11,13a,14,14a,15,16,16a-hexadecahydrocyclopropa[e]pyrrolo[1,2-a][1,4]diazacyclopentadecin-6-yl)carbamate]	1.01 to 5 nM	1.01 to 5 nM	
COc1ccc2c(O[C@@H]3C[C@H]4C(=O)N[C@]5(C(=O)NS(=O)(=O)C6(C)CC6)C[C@H]5/C=C\CC[C@@H](C)C[C@@H](C)[C@H](NC(=O)OC(C)(C)C(F)(F)F)C(=O)N4C3)nc(N(C)C)nc2c1 [Compound 3004, 1,1,1-trifluoro-2-methylpropan-2-yl((2R,6S,7R,9R,13aS,14aR,16aS,Z)-2-((2-(dimethylamino)-7-methoxyquinazolin-4-yl)oxy)-7,9-dimethyl-14a-(((1-methylcyclopropyl)sulfonyl)carbamoyl)-5,16-dioxo-1,2,3,5,6,7,8,9,10,11,13a,14,14a,15,16,16a-hexadecahydrocyclopropa[e]pyrrolo[1,2-a][1,4]diazacyclopentadecin-6-yl)carbamate]			EC50 [1, 5]: < 5.46 nM; EC50 [2, 6]: < 5.46 nM
C[C@H]1CC/C=C\[C@@H]2C[C@@]2(C(=O)NS(=O)(=O)C2(C)CC2)NC(=O)[C@@H]2C[C@@H](Oc3nccc4c5c(ccc34)OCCO5)CN2C(=O)[C@@H](NC(=O)OC(C)(C)C)[C@H](C)C1 [Compound 5244, tert-butyl ((2R,6S,7R,9S,13aS,14aR,16aS,Z)-2-((2,3-dihydro-[1,4]dioxino[2,3-f]isoquinolin-7-yl)oxy)-7,9-dimethyl-14a-(((1-methylcyclopropyl)sulfonyl)carbamoyl)-5,16-dioxo-1,2,3,5,6,7,8,9,10,11,13a,14,14a,15,16,16a-hexadecahydrocyclopropa[e]pyrrolo[1,2-a][1,4]diazacyclopentadecin-6-yl)carbamate]	4.82 to 103 nM	4.82 to 103 nM	
COc1cnc(O[C@@H]2C[C@H]3C(=O)N[C@]4(C(=O)NS(=O)(=O)C5(F)CC5)C[C@H]4/C=C\CC[C@@H](C)C[C@@H](C)[C@H](NC(=O)OC(C)(C)C)C(=O)N3C2)c2cc(F)ccc12 [Compound 4045, tert-butyl (2R,6S,7R,9R,13aS,14aR,16aS,Z)-2-(7-fluoro-4-methoxyisoquinolin-1-yloxy)-14a-(1-fluorocyclopropylsulfonylcarbamoyl)-7,9-dimethyl-5,16-dioxo-1,2,3,5,6,7,8,9,10,11,13a,14,14a,15,16,16a-hexadecahydrocyclopropa[e]pyrrolo[1,2-a][1,4]diazacyclopentadecin-6-ylcarbamate]	< 5.46 nM	< 5.46 nM	
C[C@H]1CC/C=C\[C@@H]2C[C@@]2(C(=O)NS(=O)(=O)C2(C)CC2)NC(=O)[C@@H]2C[C@@H](Oc3ncc(OCC(F)F)c4ccccc34)CN2C(=O)[C@@H](NC(=O)O[C@H](C)C(F)(F)F)[C@H](C)C1 [Compound 1035, (R)-1,1,1-trifluoropropan-2-yl ((2R,6S,7R,9S,13aS,14aR,16aS,Z)-2-((4-(2,2-difluoroethoxyl)isoquinolin-1-yl)oxy)-7,9-dimethyl-14a-(((1-methylcyclopropyl)sulfonyl)carbamoyl)-5,16-dioxo-1,2,3,5,6,7,8,9,10,11,13a,14,14a,15,16,16a-hexadecahydrocyclopropa[e]pyrrolo[1,2-a][1,4]diazacyclopentadecin-6-yl)carbamate]			EC50 [1, 5]: 4.82 to 103 nM; EC50 [2, 6]: 4.82 to 103 nM
COc1ccc2c(O[C@@H]3C[C@H]4C(=O)N[C@]5(C(=O)NS(=O)(=O)C6(C)CC6)C[C@H]5/C=C\CC[C@@H](C)C[C@@H](C)[C@H](NC(=O)OC(C)(C)C)C(=O)N4C3)nc(-c3ccc(OC(C)C)cc3)cc2c1 [Compound 4063, tert-butyl (2R,6S,7R,9R,13aS,14aR,16aS,Z)-2-(3-(4-isopropoxyphenyl)-6-methoxyisoquinolin-1-yloxy)-7,9-dimethyl-14a-(1-methylcyclopropylsulfonylcarbamoyl)-5,16-dioxo-1,2,3,5,6,7,8,9,10,11,13a,14,14a,15,16,16a-hexadecahydrocyclopropa[e]pyrrolo[1,2-a][1,4]diazacyclopentadecin-6-ylcarbamate]	< 5.46 nM	< 5.46 nM	
[2H]C([2H])([2H])C(C)(OC(=O)N[C@@H]1C(=O)N2C[C@H](Oc3nccc4cc(OC(C)C)ccc34)C[C@H]2C(=O)N[C@]2(C(=O)NS(=O)(=O)C3CC3)C[C@H]2/C=C\CC[C@@H](C)C[C@H]1C)C([2H])([2H])[2H] [Compound 5153, 1,1,1,3,3,3-hexadeutero-2-methylpropan-2-yl((2R,6S,7R,9R,13aS,14aR,16aS,Z)-14a-((cyclopropylsulfonyl)carbamoyl)-2-((6-isopropoxyisoquinolin-1-yl)oxy)-7,9-dimethyl-5,16-dioxo-1,2,3,5,6,7,8,9,10,11,13a,14,14a,15,16,16a-hexadecahydrocyclopropa[e]pyrrolo[1,2-a][1,4]diazacyclopentadecin-6-yl)carbamate]	< 5.46 nM	< 5.46 nM	
COc1ccc2c(O[C@@H]3C[C@H]4C(=O)N[C@]5(C(=O)NS(=O)(=O)C6CC6)C[C@H]5/C=C\CC[C@@H](C)C[C@@H](C)[C@H](NC(=O)OC(C)(C)C(F)(F)F)C(=O)N4C3)nccc2c1 [Compound 7, 1,1,1-trifluoro-2-methylpropan-2-yl((2R,6S,7R,9R,13aS,14aR,16aS,Z)-14a-((cyclopropylsulfonyl)carbamoyl)-2-((6-methoxyisoquinolin-1-yl)oxy)-7,9-dimethyl-5,16-dioxo-1,2,3,5,6,7,8,9,10,11,13a,14,14a,15,16,16a-hexadecahydrocyclopropa[e]pyrrolo[1,2-a][1,4]diazacyclopentadecin-6-yl)carbamate]			EC50 [1, 5]: < 5.46 nM; EC50 [2, 6]: < 5.46 nM
CCOc1cnc(O[C@@H]2C[C@H]3C(=O)N[C@]4(C(=O)NS(=O)(=O)C5(C)CC5)C[C@H]4/C=C\CC[C@@H](C)C[C@@H](C)[C@H](NC(=O)OC(C)(C)C(F)(F)F)C(=O)N3C2)c2cc(Cl)ccc12 [Compound 4076]			EC50 ([1]; GETYPE1B, HCV genotype 1b replicon luciferase): < 5.46 nM; EC50 ([2]; GETYPE1A, HCV genotype 1a replicon luciferase): < 5.46 nM
CCCOc1cnc(O[C@@H]2C[C@H]3C(=O)N[C@]4(C(=O)NS(=O)(=O)C5(C)CC5)C[C@H]4/C=C\CC[C@@H](C)C[C@@H](C)[C@H](NC(=O)OC(C)(C)C)C(=O)N3C2)c2ccccc12 [Compound 5079, tert-butyl ((2R,6S,7R,9R,13aS,14aR,16aS,Z)-7,9-dimethyl-14a-(((1-methylcyclopropyl)sulfonyl)carbamoyl)-5,16-dioxo-2-((4-propoxyisoquinolin-1-yl)oxy)-1,2,3,5,6,7,8,9,10,11,13a,14,14a,15,16,16a-hexadecahydrocyclopropa[e]pyrrolo[1,2-a][1,4]diazacyclopentadecin-6-yl)carbamate]	< 5.46 nM	< 5.46 nM	
COc1ccc2c(O[C@@H]3C[C@H]4C(=O)N[C@]5(C(=O)NS(=O)(=O)C6CC6)C[C@H]5/C=C\CC[C@@H](C)C[C@@H](C)[C@H](NC(=O)OC(C)(C)C(F)(F)F)C(=O)N4C3)nc(-c3ccc4c(c3)OCCO4)cc2c1 [Compound 5243, 1,1,1-trifluoro-2-methylpropan-2-yl((2R,6S,7R,9R,13aS,14aR,16aS,Z)-14a-((cyclopropylsulfonyl)carbamoyl)-2-((3-(2,3-dihydrobenzo[b][1,4]dioxin-6-yl)-6-methoxyisoquinolin-1-yl)oxy)-7,9-dimethyl-5,16-dioxo-1,2,3,5,6,7,8,9,10,11,13a,14,14a,15,16,16a-hexadecahydrocyclopropa[e]pyrrolo[1,2-a][1,4]diazacyclopentadecin-6-yl)carbamate]	< 5.46 nM	< 5.46 nM	
COc1ccc2c(O[C@@H]3C[C@H]4C(=O)N[C@]5(C(=O)NS(=O)(=O)C6CC6)C[C@H]5/C=C\CC[C@@H](C)C[C@@H](C)[C@H](NC(=O)NC(C)(C)C)C(=O)N4C3)nc(-c3ccc(OC(C)C)nc3)cc2c1 [Compound 5221, (2R,6S,7R,9R,13aS,14aR,16aS,Z)-6-(3-(tert-butyl)ureido)-N-(cyclopropylsulfonyl)-2-((3-(6-isopropoxypyridin-3-yl)-6-methoxyisoquinolin-1-yl)oxy)-7,9-dimethyl-5,16-dioxo-1,2,3,5,6,7,8,9,10,11,13a,14,14a,15,16,16a-hexadecahydrocyclopropa[e]pyrrolo[1,2-a][1,4]diazacyclopentadecine-14a-carboxamide]	< 5.46 nM	< 5.46 nM	
CC[C@@H]1C[C@H](C)CC/C=C\[C@@H]2C[C@@]2(C(=O)NS(=O)(=O)C2CC2)NC(=O)[C@@H]2C[C@@H](Oc3nc(-c4ccc(OC(C)C)cn4)cc4cc(OC)ccc34)CN2C(=O)[C@H]1NC(=O)OC(C)(C)C [Compound 5479, tert-butyl ((2R,6S,7R,9R,13aS,14aR,16aS,Z)-14a-((cyclopropylsulfonyl)carbamoyl)-7-ethyl-2-((3-(5-isopropoxypyridin-2-yl)-6-methoxyisoquinolin-1-yl)oxy)-9-methyl-5,16-dioxo-1,2,3,5,6,7,8,9,10,11,13a,14,14a,15,16,16a-hexadecahydrocyclopropa[e]pyrrolo[1,2-a][1,4]diazacyclopentadecin-6-yl)carbamate]	0.51 to 1 nM	1.01 to 5 nM	
